Assay results published in US10124004B2, “Pyrido[3,4-d]pyrimidine derivative and pharmaceutically acceptable salt thereof” (Teijin Pharma Limited, priority 2015, dated 2018).
Where two headings read alike, the source gives them in different places.

Key:
[1] = molecular target: T1, CDK2/cyclin A2 (Homo sapiens, UniProt P24941); experiment: Human CDK2/cyclin A2 inhibitory activity (QS S Assist CDK2/Cyclin A2_FP Kit, IMAP fluorescence polarization); format: biochemical
T1 construct: purchased Carna Biosciences, Inc. QS S Assist CDK2/Cyclin A2_FP Kit
Protocol: Human CDK2/Cyclin A^2 Inhibitory Activity
Each compound was analyzed for CDK2/cyclin A2 inhibitory activity with an assay kit (QS S Assist CDK2/Cyclin A2_FP Kit, available from Carna Biosciences, Inc.). This assay kit determines kinase activity on the basis of the IMAP technology by Molecular Devices. Specifically, the kinase activity is determined through quantification of a variation in fluorescent polarization caused by binding of a kinase-phosphorylated fluorescent substance to an IMAP-binding reagent.
An assay buffer was prepared by 10-fold dilution of the 10× assay buffer attached to the kit with distilled water, and each solution was prepared with the assay buffer. The assay buffer contained 20 mM HEPES (pH 7.4), 0.01% Tween 20, and 2 mM dithiothreitol. A test compound solution was prepared by dilution of the test compound with dimethyl sulfoxide (DMSO) to a concentration 100 times higher than the final concentration and then 25-fold dilution with the assay buffer to a concentration four times higher than the final concentration. An ATP/substrate/Metal solution was prepared by five-fold dilution of the 5×ATP/substrate/Metal solution attached to the kit with the assay buffer. An enzyme solution was prepared by dilution of the CDK2/cyclin A2 attached to the kit with the assay buffer to a concentration twice higher than the final concentration (final concentration of CDK2/cyclin A2: 2.5 ng/well). A detection reagent was prepared by five-fold dilution of 5×IMAP-binding buffer A with distilled water and 400-fold dilution of the IMAP-binding reagent with the diluted buffer.
The test compound solution (5 μL/well) and the ATP/substrate/Metal solution (5 μL/well) were added to a 384-well plate, and the enzyme solution or the assay buffer (10 μL/well) was added to the plate (total amount of the reaction mixture: 20 μL/well) for initiation of enzymatic reaction. […] The reaction was performed at room temperature for 60 minutes, and the detection reagent (60 μL/well) was then added to the plate, followed by further reaction for 30 minutes at room temperature under light shielding conditions. Subsequently, fluorescent polarization was determined with a microplate reader at an excitation wavelength of 485 nm and an emission wavelength of 535 nm.
The percent inhibition of enzyme activity was calculated for each test compound (note: enzyme activity=100% in the case of addition of the enzyme solution and addition of DMSO instead of the test compound solution, whereas enzyme activity=0% in the case of addition of the assay buffer instead of the enzyme solution and addition of DMSO instead of the test compound solution). The percent inhibition of enzyme activity was fitted to a dose-response curve, to determine a 50% inhibitory concentration against CDK2/cyclin A2.
In each table, “+++” corresponds to IC50<10 nM, “++” 10 nM≤IC50<100 nM, and “+” 100 nM≤IC50.

[2] = molecular target: T2, CDK4/cyclin D3 (Homo sapiens, UniProt P11802); experiment: Human CDK4/cyclin D3 inhibitory activity (QS S Assist CDK4/Cyclin D3_FP Kit, IMAP fluorescence polarization); format: biochemical
T2 construct: purchased Carna Biosciences, Inc. QS S Assist CDK4/Cyclin D3_FP Kit
In short: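 Percent inhibition, relative to DMSO with and without enzyme, was curve-fitted to give IC50 from polarization (ex 485, em 535 nm). The 45-min room-temperature reaction used 12.5-25 ng/well enzyme, kit ATP/substrate/metal mix, and HEPES pH 7.4 buffer with Tween20 and DTT, followed by 30-min IMAP binding in the dark.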

[3] = 50% inhibitory concentration against CDK2/cyclin A2, given as class symbol
[4] = 50% inhibitory concentration against CDK4/cyclin D3, given as class symbol
[5] = Human CDK2/cyclin A2 inhibitory activity, read-out: CDK2 Activity symbol
[6] = Human CDK4/cyclin D3 inhibitory activity, read-out: CDK4 Activity symbol

T2 sequence (P11802 whole entry): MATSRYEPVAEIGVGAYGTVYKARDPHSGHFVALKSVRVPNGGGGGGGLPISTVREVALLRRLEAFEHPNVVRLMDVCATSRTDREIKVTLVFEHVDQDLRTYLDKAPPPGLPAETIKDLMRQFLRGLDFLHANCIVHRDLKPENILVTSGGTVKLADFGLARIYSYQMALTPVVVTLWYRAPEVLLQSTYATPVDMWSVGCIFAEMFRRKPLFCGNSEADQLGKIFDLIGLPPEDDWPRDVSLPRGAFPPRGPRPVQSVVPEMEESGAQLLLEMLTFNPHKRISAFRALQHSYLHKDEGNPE
T2 sequence (P30281 whole entry partner): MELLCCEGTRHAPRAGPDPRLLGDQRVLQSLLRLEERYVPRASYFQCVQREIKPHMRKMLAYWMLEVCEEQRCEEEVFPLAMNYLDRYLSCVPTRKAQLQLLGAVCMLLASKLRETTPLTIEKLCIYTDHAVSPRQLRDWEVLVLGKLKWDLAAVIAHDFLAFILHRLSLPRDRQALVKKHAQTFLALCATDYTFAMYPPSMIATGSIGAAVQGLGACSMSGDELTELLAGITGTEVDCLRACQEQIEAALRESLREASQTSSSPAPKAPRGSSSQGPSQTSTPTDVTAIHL

SMILES | IC50 [1, 3] [nM] | IC50 [2, 4] [nM] | IC50 [1, 5] [nM] | IC50 [2, 6] [nM]
CC(C)Nc1nc(C(C)O)cc2cnc(Nc3ccc(N4CCN(C(C)CO)CCC4=O)cn3)nc12 (single isomer, unassigned) [Compound 810] | ≥ 100 | < 10 | – | –
C[C@@H](O)c1cc2cnc(Nc3ccc(N4CCNCC4=O)cn3)nc2c(NC2(C)CC2)n1 [Compound 1173] | ≥ 100 | < 10 | – | –
COCC(C)(C)Nc1nc([C@@H](C)O)cc2cnc(Nc3ccc(CN4CCc5nc(C)[nH]c5C4)cn3)nc12 [Compound 296] | – | – | ≥ 100 | ≥ 100
Cc1nc(Nc2ncc3cc([C@@H](C)O)nc(NCC4CC4)c3n2)ccc1N1CCNCC1 [Compound 1095] | ≥ 100 | < 10 | – | –
CC(=O)N(Cc1ccc(Nc2ncc3cc(C(F)F)nc(NC(C)C)c3n2)nc1)C[C@H]1CCCO1 [Compound 145] | – | – | 10 to 100 | < 10
CC(C)Nc1nc([C@@H](C)O)cc2cnc(Nc3ccc(N4CCNC[C@@H]4C)cn3)nc12 [Compound 986] | ≥ 100 | < 10 | – | –
CC(C)Nc1nc(C(F)F)cc2cnc(Nc3ccc(CN(C4CCOC4)S(C)(=O)=O)cn3)nc12 (centres unmarked) [Compound 162] | – | – | ≥ 100 | 10 to 100
CC(C)Nc1nc(C(F)F)cc2cnc(Nc3ccc(CCCC(=O)O)cn3)nc12 [Compound 136] | – | – | ≥ 100 | 10 to 100
CC(C)Nc1nc([C@@H](C)O)cc2cnc(Nc3ccc(C(=O)N4CC[C@@H](N(C)C)C4)cn3)nc12 [Compound 1163] | 10 to 100 | < 10 | – | –
CC(C)Nc1nc([C@@H](C)O)cc2cnc(Nc3ccc(C4COCCN4)cn3)nc12 (some centres unmarked) [Compound 798] | ≥ 100 | < 10 | – | –
CC(C)Nc1nc([C@@H](C)O)cc2cnc(Nc3ccc(N4CCN(CCO)CCC4=O)cn3)nc12 [Compound 811] | 10 to 100 | < 10 | – | –
C[C@@H](O)c1cc2cnc(Nc3ccc(O[C@@H]4CCNC4)cn3)nc2c(N[C@H]2CCCOC2)n1 [Compound 805] | ≥ 100 | < 10 | – | –
CCNc1nc([C@@H](C)OC)cc2cnc(Nc3ccc(CN4CCNCC4)cn3)nc12 [Compound 816] | ≥ 100 | < 10 | – | –
CCNc1nc([C@@H](C)O)cc2cnc(Nc3ccc(CN4CCCC(O)C4)cn3)nc12 (some centres unmarked) [Compound 1080] | ≥ 100 | < 10 | – | –
CO[C@H](C)c1cc2cnc(Nc3ccc(OC4CCNCC4)cn3)nc2c(NC2CCOCC2)n1 [Compound 873] | ≥ 100 | < 10 | – | –
CC(C)Nc1nc(C(F)F)cc2cnc(Nc3ccc(N4CCNCC4)nn3)nc12 [Compound 73] | – | – | 10 to 100 | < 10
CC(C)Nc1nc([C@@H](C)F)cc2cnc(Nc3ccc(N4CCNCC4)nn3)nc12 [Compound 718] | ≥ 100 | 10 to 100 | – | –
C[C@@H](O)c1cc2cnc(Nc3ccc(N4CCNCC4)nn3)nc2c(N[C@H]2CCOC2)n1 [Compound 251] | – | – | ≥ 100 | < 10
CNCCOc1ccc(Nc2ncc3cc(C(C)O)nc(NC4(C)CCCOC4)c3n2)nc1 (single isomer, unassigned) [Compound 869] | 10 to 100 | < 10 | – | –
CC(C)Nc1nc([C@@H](C)O)cc2cnc(Nc3ccc(O[C@H]4CCNC4)cn3)nc12 [Compound 566] | – | – | ≥ 100 | < 10
CO[C@H](C)c1cc2cnc(Nc3ccc(N4CCNC[C@@H]4C)nn3)nc2c(NC(C)C)n1 [Compound 371] | – | – | ≥ 100 | < 10
CO[C@H](C)c1cc2cnc(Nc3ccc(N4CCOCC4)cn3)nc2c(NC(C)C)n1 [Compound 214] | – | – | ≥ 100 | < 10
CC(C)Nc1nc([C@H](C)O)cc2cnc(Nc3ccc(N4CCNCC4)cn3)nc12 [Compound 17] | – | – | ≥ 100 | < 10
CC(C)Nc1nc(C(F)F)cc2cnc(Nc3ccc(S(=O)(=O)CCCO)cn3)nc12 [Compound 112] | – | – | 10 to 100 | 10 to 100
CO[C@H](C)c1cc2cnc(Nc3ccc(CN4CCNC5(CC5)C4)cn3)nc2c(N[C@H]2CCCOC2)n1 [Compound 378] | – | – | ≥ 100 | < 10

SMILES | IC50 [1, 3] [nM] | IC50 [2, 4] [nM] | IC50 [1, 5] [nM] | IC50 [2, 6] [nM]
CC(C)Nc1nc([C@@H](C)O)cc2cnc(Nc3ccc(NC(=O)C4CCCNC4)cn3)nc12 (some centres unmarked) [Compound 769] | ≥ 100 | < 10 | – | –
CC(O)c1cc2cnc(Nc3ccc(OC4CCNCC4F)cn3)nc2c(NC2CCC(C)(C)OC2)n1 (centres unmarked) [Compound 647] | ≥ 100 | < 10 | – | –
C[C@@H](O)c1cc2cnc(Nc3ccc(CN4CCNCC4)cn3)nc2c(NC2CCOCC2)n1 [Compound 255] | – | – | ≥ 100 | < 10
CO[C@H](C)c1cc2cnc(Nc3ccc(NC(=O)C4CCCCN4)cn3)nc2c(NC(C)C)n1 (some centres unmarked) [Compound 838] | ≥ 100 | < 10 | – | –
CO[C@H](C)c1cc2cnc(Nc3ccc(N4CCNCC4)nn3)nc2c(NCC(C)(C)C)n1 [Compound 710] | ≥ 100 | < 10 | – | –
C[C@@H](O)c1cc2cnc(Nc3ccc(N4CCNCC4)nn3)nc2c(NC(C)(C)C(=O)O)n1 [Compound 315] | – | – | ≥ 100 | ≥ 100
CCNc1nc([C@@H](C)O)cc2cnc(Nc3ccc4c(n3)CCNC4)nc12 [Compound 996] | ≥ 100 | < 10 | – | –
CCCNc1nc([C@@H](C)O)cc2cnc(Nc3ccc(CN4CCC[C@H](O)C4)cn3)nc12 [Compound 1198] | ≥ 100 | < 10 | – | –
CC(C)Nc1nc([C@@H](C)O)cc2cnc(Nc3ccc(N4CCNCC4C(F)(F)F)nn3)nc12 (some centres unmarked) [Compound 863] | ≥ 100 | < 10 | – | –
CC(O)CN1CCN(c2ccc(Nc3ncc4cc([C@@H](C)O)nc(NC(C)C)c4n3)nn2)CC1 (some centres unmarked) [Compound 637] | ≥ 100 | < 10 | – | –
CC(C)Nc1nc([C@@H](C)O)cc2cnc(Nc3ccc(N4CCN(C(C)(C)CO)CC4)nn3)nc12 [Compound 701] | ≥ 100 | < 10 | – | –
C[C@@H](O)c1cc2cnc(Nc3ccc(OC[C@H]4CCCN4)cn3)nc2c(N[C@H]2CCCOC2)n1 [Compound 783] | ≥ 100 | < 10 | – | –
CC(C)CNc1nc([C@@H](C)O)cc2cnc(Nc3ccc(CN4CCN(CCO)CC4)cn3)nc12 [Compound 846] | ≥ 100 | < 10 | – | –
C[C@@H](O)c1cc2cnc(Nc3ccc(N4CCN(C=O)CC4=O)cn3)nc2c(N[C@H]2CCOC2)n1 [Compound 354] | – | – | ≥ 100 | 10 to 100
CO[C@H](C)c1cc2cnc(Nc3ccc(N4CCN(C(=O)C(C)C)CC4)nn3)nc2c(NC(C)C)n1 [Compound 747] | ≥ 100 | 10 to 100 | – | –
CC(C)N(C)c1nc(C(F)F)cc2cnc(Nc3ccc(N4CCNCC4)cn3)nc12 [Compound 14] | – | – | ≥ 100 | < 10
CCNc1nc([C@@H](C)O)cc2cnc(Nc3ccc(CN4CCC(CO)CC4)cn3)nc12 [Compound 1147] | ≥ 100 | < 10 | – | –
CCNc1nc(C(C)=O)cc2cnc(Nc3ccc(N4CCNCC4)cn3)nc12 [Compound 58] | – | – | ≥ 100 | 10 to 100
CC(=O)c1cc2cnc(Nc3ccc(N4CCNCC4)nn3)nc2c(NC2CCOCC2)n1 [Compound 330] | – | – | ≥ 100 | < 10
COCc1cc2cnc(Nc3ccc(N4CCNCC4)cn3)nc2c(NC(C)C)n1 [Compound 44] | – | – | ≥ 100 | < 10
CO[C@H](C)c1cc2cnc(Nc3ccc(OCCN4CCCC4)cn3)nc2c(NC(C)C)n1 [Compound 287] | – | – | ≥ 100 | < 10
C[C@@H](O)c1nc(NC2CCOCC2)c2nc(Nc3ccc(N4CCNCC4)nn3)ncc2c1Cl [Compound 337] | – | – | ≥ 100 | < 10
CC(C)Nc1nc([C@@H](C)O)cc2cnc(Nc3ccc(O[C@@H]4CCNC[C@H]4F)cn3)nc12 [Compound 567] | – | – | ≥ 100 | < 10
C[C@@H](O)c1cc2cnc(Nc3ccc(CN4CCN(C)CC4)cn3)nc2c(NC(C)(C)CO)n1 [Compound 1106] | ≥ 100 | < 10 | – | –
